Measured values reported in publication PMC10836395, “Investigation of how gate residues in the main channel affect the catalytic activity of Scytalidium thermophilum catalase” (Acta Crystallographica. Section D, Structural Biology, 2024).
Residue numbers refer to the chain shown, from its start. Marks after values point to notes of the source that are not given here.

Experiments:
[1] = target: T1, CATPO T188D variant (Scytalidium thermophilum (Humicola insolens), UniProt M4GGR5, T207D); test: biochemical
T1 sequence (M4GGR5 entry or part of it T207D): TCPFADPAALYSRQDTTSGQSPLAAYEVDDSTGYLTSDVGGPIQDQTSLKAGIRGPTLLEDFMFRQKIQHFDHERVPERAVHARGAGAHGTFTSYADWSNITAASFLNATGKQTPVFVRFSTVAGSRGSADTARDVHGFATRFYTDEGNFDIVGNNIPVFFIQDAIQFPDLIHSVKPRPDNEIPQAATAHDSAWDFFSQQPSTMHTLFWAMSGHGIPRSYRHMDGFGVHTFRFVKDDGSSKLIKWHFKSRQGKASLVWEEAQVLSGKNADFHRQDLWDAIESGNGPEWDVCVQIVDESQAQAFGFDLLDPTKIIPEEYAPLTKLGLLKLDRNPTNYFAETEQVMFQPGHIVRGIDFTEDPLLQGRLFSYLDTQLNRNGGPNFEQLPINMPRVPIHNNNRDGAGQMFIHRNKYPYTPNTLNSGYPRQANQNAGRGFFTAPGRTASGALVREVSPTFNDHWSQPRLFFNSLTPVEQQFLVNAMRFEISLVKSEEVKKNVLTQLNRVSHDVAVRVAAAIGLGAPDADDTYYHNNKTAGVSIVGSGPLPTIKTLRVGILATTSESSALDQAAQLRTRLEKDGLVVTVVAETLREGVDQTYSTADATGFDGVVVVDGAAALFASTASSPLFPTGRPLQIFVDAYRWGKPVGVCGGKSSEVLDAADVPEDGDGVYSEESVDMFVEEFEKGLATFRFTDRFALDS

[2] = target: T1, CATPO T188D variant; type: biochemical
[3] = target: CATPO T188I variant (Scytalidium thermophilum (Humicola insolens), UniProt M4GGR5, T207I); type: biochemical
Chain of CATPO T188I variant (M4GGR5 entry or part of it T207I): as the sequence (M4GGR5 entry or part of it T207D) above

[4] = target: T2, T188F (Mycothermus thermophilus, UniProt M4GGR5, T207F); test: Spectrophotometric phenol oxidase assay without H2O2 at pH 7.0 and 60 °C, initial rates fitted to the Michaelis-Menten equation.; type: biochemical; conditions: read-out: Phenol oxidase K m; n = 3
T2 construct: recombinant, pET-28-TEV-CATPO; contains heme b; Rz 0.8
T2 sequence (M4GGR5 20-717 T207F): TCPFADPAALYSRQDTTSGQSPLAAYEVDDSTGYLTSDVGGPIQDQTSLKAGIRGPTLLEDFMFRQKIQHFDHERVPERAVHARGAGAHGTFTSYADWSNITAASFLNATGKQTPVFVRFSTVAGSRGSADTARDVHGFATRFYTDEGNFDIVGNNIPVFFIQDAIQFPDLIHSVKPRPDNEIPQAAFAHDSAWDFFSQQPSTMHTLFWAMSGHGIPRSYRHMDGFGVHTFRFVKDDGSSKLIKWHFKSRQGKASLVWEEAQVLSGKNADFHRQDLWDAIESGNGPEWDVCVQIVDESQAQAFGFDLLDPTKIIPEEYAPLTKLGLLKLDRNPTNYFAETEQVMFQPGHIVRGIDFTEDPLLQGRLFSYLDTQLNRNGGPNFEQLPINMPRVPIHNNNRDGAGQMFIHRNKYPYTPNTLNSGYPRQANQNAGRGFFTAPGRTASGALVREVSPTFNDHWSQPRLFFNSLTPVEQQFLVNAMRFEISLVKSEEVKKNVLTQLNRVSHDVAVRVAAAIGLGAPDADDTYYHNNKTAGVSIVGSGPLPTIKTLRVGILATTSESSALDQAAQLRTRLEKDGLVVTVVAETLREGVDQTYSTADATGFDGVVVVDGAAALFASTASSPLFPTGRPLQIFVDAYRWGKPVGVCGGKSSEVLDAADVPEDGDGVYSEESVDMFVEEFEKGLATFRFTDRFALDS
Method: (§1) All inhibition assays were performed in triplicate.

[5] = target: T3, T188D (Mycothermus thermophilus, UniProt M4GGR5, T207D); test: as above; type: biochemical; conditions: read-out: Phenol oxidase K m; n = 3
T3 construct: recombinant, pET-28-TEV-CATPO; contains heme b; Rz 0.5
T3 sequence (M4GGR5 20-717 T207D): T2 sequence (M4GGR5 20-717 T207F) with F188D
Method: as §1

[6] = target: T4, T188I (Mycothermus thermophilus, UniProt M4GGR5, T207I); test: as above; type: biochemical; conditions: read-out: Phenol oxidase K m; n = 3
T4 construct: recombinant, pET-28-TEV-CATPO; contains heme b; Rz 0.4
T4 sequence (M4GGR5 20-717 T207I): T2 sequence (M4GGR5 20-717 T207F) with F188I
Method: as §1

[7] = target: CATPO T188A variant (Scytalidium thermophilum (Humicola insolens), UniProt M4GGR5, T207A); test: biochemical
Chain of CATPO T188A variant (M4GGR5 entry or part of it T207A): as the sequence (M4GGR5 entry or part of it T207D) above

## Oc1cccc(O)c1O [Pyrogallol, pyrogallol]
[1]
  Ki: 55 ± 5.5 mM
[2]
  V max: 15000 ± 150 mM/min
  k cat/K m: 5710 ± 200 s^−1 M^−1 (×10^2)
[2]; pH 7.0 (ABTS pH 5.0), 60°C
  K m: 41 ± 1.0 mM
[3]
  V max: 27400 ± 310 mM/min
  k cat/K m: 3470 ± 256 s^−1 M^−1 (×10^2)
[3]; pH 7.0 (ABTS pH 5.0), 60°C
  K m: 38 ± 0.5 mM
[4]
  K m: 37 ± 0.5 mM
[5]
  K m: 41 ± 1 mM
[6]
  K m: 38 ± 0.5 mM
[7]
  Ki: 4.1 ± 0.8 mM
